From patent US10407445B2, “Hepatitis C virus inhibitors” (ENANTA PHARMACEUTICALS, INC., priority 2013, dated 2019)
Like-named read-outs stand apart in the source and are kept apart here.

How the values were obtained:
[1] = tested on: GT1a replicon encoding NS5A mutation M28T; assay: Transient replication assay, GT1a replicon with NS5A mutation M28T; assay type: cell-based; conditions: Hepatitis C virus
[2] = tested on: HCV genotype 1a replicon, NS5A K24E Q30K; assay: Transient replication assay, GT1a NS5A K24E Q30K; assay type: cell-based; conditions: Hepatitis C virus
[3] = tested on: HCV genotype 1a replicon, NS5A Q30R Y93H; assay: Transient replication assay, GT1a NS5A Q30R Y93H; assay type: cell-based; conditions: Hepatitis C virus
[4] = tested on: GT1a replicon encoding NS5A mutation Y93H; assay: Transient replication assay, GT1a replicon with NS5A mutation Y93H; assay type: cell-based; conditions: Hepatitis C virus
[5] = IV and PO single dose pharmacokinetic studies in SD rats; assay type: in vivo; conditions: Sprague-Dawley, rat, plasma, male SD rats
Procedure: The pharmacokinetics of selected compounds was characterized in male Sprague-Dawley (SD) rats (250-300 g). […] The intravenous (IV) dosing vehicle was 5% ethanol and 95% of 20% 2-hydroxypropyl β-cyclodextrin in water. The oral dosing vehicle was 33% of Microemulsion Preconcentrate #5 (a lipid based self-emulsifying drug delivery system, SEDDS) and 67% of 50 mM citrate buffer (final pH 3.6).
Serial blood samples (approximately 0.3 mL each) were collected from jugular vein or other suitable vein at specified time points. For the IV dosing group, the blood samples were collected predose and at 0.08, 0.25, 0.50, 1, 3, 6, 8, and 24 hours after the start of dosing. For the oral group, the blood samples were collected predose and at 0.08, 0.25, 0.50, 1, 3, 6, 8, and 24 hours after dosing. The blood samples were collected into VACUTAINER™ tubes containing EDTA-K3 as the anti-coagulant and were centrifuged at approximately 4° C. to obtain plasma. The plasma samples were stored at −20° C. until analysis by LC/MS/MS.
A bioanalytical method utilizing high performance liquid chromatography coupled to tandem mass spectrometry (LC/MS/MS) was developed for analysis of the selected compound in rat plasma. Detection was performed using multiple reaction monitoring (MRM); Ions representing the precursor (M+H)^+ species was selected in quadrupole 1 (Q1) and collided with nitrogen gas in the collision cell (Q2) to generate specific product ion, which was subsequently monitored by quadrupole 3 (Q3). Standard curve and quality control samples were prepared in male rat plasma and processed in the same way as the test samples to generate quantitative data.
Pharmacokinetic parameters were generated using non-compartmental pharmacokinetic analysis (Phoenix WinNonlin, version 6.3). Values below the lower limit of quantification (LLOQ) were assigned a value of zero if predose and treated as missing thereafter. Area under the curve (AUC) was calculated using the linear trapezoidal rule. The oral bioavailability (% F) was determined by comparison of the area under the curve (AUC) of the compound in plasma following oral administration to that generated following intravenous administration.

[6] = tested on: HCV genotype 1a replicon, NS5A K24E Q30R; assay: Transient replication assay, GT1a NS5A K24E Q30R; assay type: cell-based; conditions: Hepatitis C virus
HCV GT 2a-J6 replicon = assay: HCV replicon assay, GT2a chimeric replicon expressing NS5A from GT2a strain J6; assay type: cell-based; conditions: Hepatitis C virus
Method in brief: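 Stable Huh-7.5 lines carried JFH-1 subgenomic replicons with hRluc-Neo reporter, in which NS5A was swapped for GT3a strain S52 or GT2a strain J6 NS5A. Renilla luciferase was read after 72 h relative to DMSO controls.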

[7] = tested on: HCV genotype 1a replicon, NS5A Q30R Y93C; assay: Transient replication assay, GT1a NS5A Q30R Y93C; assay type: cell-based; conditions: Hepatitis C virus
[8] = oral gavage 20 mg/kg vs IV bolus 2 mg/kg

Compound	EC50 ([1]; read-out: EC50 1a M28T) [nM]	EC50 [2] [nM]	EC50 [3] [nM]	EC50 ([4]; read-out: EC50 1a Y93H) [nM]	bioavailability [5, 8] [%]	EC50 [6] [nM]	EC50 (HCV GT 2a-J6 replicon; 72 h, read-out: EC50 2a J6) [nM]	EC50 [7] [nM]	EC50 ([1]; read-out: EC50 (nM) 1a M28T) [nM]	EC50 ([4]; read-out: EC50 (nM) 1a Y93H) [nM]	bioavailability ([5]; comparative table, oral 20 mg/kg vs IV) [%]	EC50 (HCV GT 2a-J6 replicon; read-out: EC50 (nM) 2a-J6) [nM]
COC(=O)N[C@H](C(=O)N1C[C@]2(CCCOC2)C[C@H]1c1ncc(-c2ccc(-c3ccc4c(ccc5nc([C@@H]6C[C@@H]7CCC[C@@H]7N6C(=O)[C@@H](NC(=O)OC)C(C)C)[nH]c54)c3)cc2)[nH]1)C(C)C [Compound 16]	0.08	7.9	38	8	23.7	1.8	0.8	1.4				
COC(=O)N[C@H](C(=O)N1CCC[C@H]1c1nc2ccc3cc(-c4ccc5c(ccc6nc([C@@H]7C[C@@]8(CCCOC8)CN7C(=O)[C@@H](NC(=O)OC)C(C)C)[nH]c65)c4)ccc3c2[nH]1)C(C)C [Compound 48]	0.05			2	1.7		0.03					
COC(=O)N[C@H](C(=O)N1CCC[C@H]1c1nc(-c2ccc(-c3ccc(-c4c[nH]c([C@@H]5CCCN5C(=O)[C@@H](NC(=O)OC)C(C)C)n4)cc3)cc2)c[nH]1)C(C)C [Daclatasvir, reference compound]		20	243			3.5		26				
COC(=O)N[C@H](C(=O)N1C[C@]2(CCCOC2)C[C@H]1c1nc2ccc3cc(-c4ccc(-c5cnc([C@@H]6C[C@@H]7COC[C@@H]7N6C(=O)[C@@H](NC(=O)OC)C(C)C)[nH]5)cc4)ccc3c2[nH]1)C(C)C [Compound 34]	0.03			4	2.1		0.7					
COC(=O)N[C@H](C(=O)N1C[C@]2(CCCOC2)C[C@H]1c1ncc(-c2ccc(-c3ccc4c(ccc5nc([C@@H]6C[C@@]7(CCCOC7)CN6C(=O)[C@@H](NC(=O)OC)C(C)C)[nH]c54)c3)cc2)[nH]1)C(C)C [Compound 11]	0.02			2	7.1		2					
COC(=O)N[C@H](C(=O)N1C[C@]2(CCCOC2)C[C@H]1c1nc2ccc3cc(-c4ccc5c(ccc6nc([C@@H]7C[C@H]8C[C@H]8N7C(=O)[C@@H](NC(=O)OC)C(C)C)[nH]c65)c4)ccc3c2[nH]1)C(C)C [Compound 6]	0.06			0.8	3.5		0.07					
COC(=O)N[C@H](C(=O)N1C[C@]2(CCCOC2)C[C@H]1c1ncc(-c2ccc(-c3ccc4c(ccc5nc([C@@H]6CC7(CC7)CN6C(=O)[C@@H](NC(=O)OC)C(C)C)[nH]c54)c3)cc2)[nH]1)C(C)C [Compound 28]	0.09			16	7.2		13					
COC(=O)N[C@H](C(=O)N1C[C@]2(CCCOC2)C[C@H]1c1ncc(-c2ccc(-c3ccc4c(ccc5nc([C@@H]6CCCN6C(=O)[C@@H](NC(=O)OC)C(C)C)[nH]c54)c3)cc2)[nH]1)C(C)C [drawing 233]									0.2	8	7	0.6
COC(=O)N[C@H](C(=O)N1C[C@]2(CCCOC2)C[C@H]1c1nc2ccc3cc(-c4ccc5c(ccc6nc([C@@H]7C[C@@]8(CCCOC8)CN7C(=O)[C@@H](NC(=O)OC)C(C)C)[nH]c65)c4)ccc3c2[nH]1)C(C)C [Compound 31]	0.007			0.2	3.8		0.3					
COC(=O)N[C@H](C(=O)N1CCC[C@H]1c1ncc(-c2ccc(-c3ccc4c(ccc5nc([C@@H]6C[C@@]7(CCCOC7)CN6C(=O)[C@@H](NC(=O)OC)C(C)C)[nH]c54)c3)cc2)[nH]1)C(C)C [Compound 44]	0.06			6	14.8		1					
